From PMC6225212, “Synthesis and Pharmacological Evaluation of Novel Silodosin-Based Arylsulfonamide Derivatives as α1A/α1D-Adrenergic Receptor Antagonist with Potential Uroselective Profile” (Molecules : A Journal of Synthetic Chemistry and Natural …, 2018)
pEC50, pIC50: −log10 of the molar value. Entries after “also recorded” stand apart in the source; their conditions may differ.

Assays:
α1A-ARs = biological target: T1, α1A-ARs (Homo sapiens, UniProt P35348); experiment: Intrinsic activity at α1A-ARs, β-lactamase reporter gene, FRET substrate; format: cell-based; design: key to α1A Profile: ANT—antagonist; AGO—agonist; details: for pIC50: antagonist mode, three independent experiments; for α1A Profile: functional profile
T1 sequence (P35348 1-466): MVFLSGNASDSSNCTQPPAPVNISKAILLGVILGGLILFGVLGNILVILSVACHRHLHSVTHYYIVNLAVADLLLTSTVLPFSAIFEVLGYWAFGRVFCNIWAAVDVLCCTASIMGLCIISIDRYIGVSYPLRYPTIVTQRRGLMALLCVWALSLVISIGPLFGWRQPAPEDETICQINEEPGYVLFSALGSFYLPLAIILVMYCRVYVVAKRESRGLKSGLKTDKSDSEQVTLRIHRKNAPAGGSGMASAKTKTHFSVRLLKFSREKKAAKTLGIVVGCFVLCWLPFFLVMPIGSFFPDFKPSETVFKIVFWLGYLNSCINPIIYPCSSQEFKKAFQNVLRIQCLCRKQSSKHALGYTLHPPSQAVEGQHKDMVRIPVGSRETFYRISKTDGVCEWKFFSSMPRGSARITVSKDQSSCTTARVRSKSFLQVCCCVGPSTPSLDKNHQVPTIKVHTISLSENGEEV
Procedure: The intrinsic activity at α1A-ARs of the selected compounds was assessed by fluorescence detection (Invitrogen, Thermo Fisher Scientific, Carlsbad, CA, USA) of β-lactamase reporter genes using a FRET-enabled substrate. […] Intrinsic activity assay was performed according to the manufacturer of the assay kit (Invitrogen, Thermo Fisher Scientific corporation, Carlsbad, CA, USA). The cells were harvested and suspended in Assay Medium to a density of 312,500 cells/mL. Of the cell suspension, 32 µL per well was added to the Test Compound wells, the Unstimulated Control wells, and Stimulated Control wells and incubated per 16–24 h. […] Then, both the agonist and the antagonist plate were incubated in a humidified 37 °C/5% CO2 incubator for 5 h. After the incubation 8 µL of LiveBLAzer™-FRET B/G Substrate Mixture (CCF4-AM, Thermo Fisher Scientific corporation) was loaded cells in the absence of direct strong lighting, covered, and incubated at room temperature for 2 h.

α1D-ARs = biological target: T2, α1D-ARs (Homo sapiens, UniProt P25100); experiment: Intrinsic activity at α1D-ARs, aequorin calcium mobilization luminescence; format: cell-based; design: key to α1D Profile: ANT—antagonist; AGO—agonist; details: for pIC50: antagonist mode, three independent experiments; for pEC50: antagonist, as worded in abstract and text, read-out: EC50(α1D); for α1D Profile: functional profile
T2 sequence (P25100 1-572): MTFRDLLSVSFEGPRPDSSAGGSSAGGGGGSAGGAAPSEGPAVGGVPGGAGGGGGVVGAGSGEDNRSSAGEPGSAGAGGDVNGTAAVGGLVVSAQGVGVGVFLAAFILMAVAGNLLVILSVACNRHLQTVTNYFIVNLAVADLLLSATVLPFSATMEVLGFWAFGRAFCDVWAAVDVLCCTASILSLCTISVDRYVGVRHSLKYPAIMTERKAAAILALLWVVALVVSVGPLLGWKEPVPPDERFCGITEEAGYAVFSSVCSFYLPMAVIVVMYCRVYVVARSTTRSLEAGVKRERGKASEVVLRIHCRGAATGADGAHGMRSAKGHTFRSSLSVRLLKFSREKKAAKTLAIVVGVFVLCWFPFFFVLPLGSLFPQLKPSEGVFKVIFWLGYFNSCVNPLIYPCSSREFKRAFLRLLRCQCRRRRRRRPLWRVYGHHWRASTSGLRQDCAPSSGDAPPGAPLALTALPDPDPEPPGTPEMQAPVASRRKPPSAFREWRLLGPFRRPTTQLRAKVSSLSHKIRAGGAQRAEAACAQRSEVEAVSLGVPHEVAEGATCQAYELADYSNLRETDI
Procedure: The intrinsic activity at α1A-ARs of the selected compounds was assessed by fluorescence detection (Invitrogen, Thermo Fisher Scientific, Carlsbad, CA, USA) of β-lactamase reporter genes using a FRET-enabled substrate. The intrinsic activity at α1B-ARs and α1D-ARs was determined by luminescence detection (PerkinElmer, Zaventem, Belgium) of calcium mobilization using the recombinant-expressed jellyfish photoprotein (Aequorin).
Intrinsic activity assay to α1B- and α1D-ARs was performed according to the manufacturer of the ready-to-use cells with stable expression of the α1B-adrenoreceptors and α1D-adrenoreceptors, respectively (PerkinElmer, Zaventem, Belgium). For measurement, cells (frozen, ready to use) were thawed and resuspended in 10 mL of assay buffer containing 5 µM coelenterazine h. This cells suspension was put in a 10 mL Falcon tube, fixed onto a rotating heel, and incubated for overnight at rt in the dark (8 rpm; 45° angle). Cells were diluted with Assay Buffer to 5000 cells/20 µL. Agonistic ligands 2 × (50 µL/well), diluted in Assay Buffer, were prepared in ½ white polystyrene area plates, and the cell suspension was dispensed in 50 µL volume on the ligands using the injector. The light emitted was recorded for 20 s. Cells with antagonist were incubated for 15 min at room temperature. Thereafter, 50 µL of agonist (3 × EC80 final concentration) was injected into the mix of cells and antagonist and the light emitted was recorded for 20 s.

[1] = tested on: normotensive anaesthetized rats; experiment: Effect on blood pressure after single i.v. administration in normotensive anaesthetized rats; format: in vivo, rat; details: 2 mg/kg i.v.
Procedure: The experiments were performed to our previously reported method.
Identified compounds 9 and 10 with favorable α1B/α1D profile and acceptable metabolic stability were selected for in vivo tests to evaluate their influence on blood pressure. Hypotensive activity was determined after one time i.v. administration to normotensive anaesthetized rats at single doses of 2 mg/kg according to our previously reported method.
The experiments were carried out on male Wistar rats (body weight 200–250 g). The animals were housed in pairs in plastic cages in constant-temperature facilities exposed to a 12:12 h light/dark cycle; water and food were available ad libitum. Experimental groups consisted of 6 animals each. All experiments were conducted in accordance with the NIH Guide for Care and Use of Laboratory Animals and were approved by the Animal Use and Care Committee of the Jagiellonian University (2012, Kraków, Poland).
The normotensive rats were anesthetized with thiopental (70 mg/kg) by i.p. injection. The left carotid artery was cannulated with polyethylene tubing filled with heparin solution in saline to facilitate pressure measurements using PowerLab Apparatus (ADInstruments, Sydney, Australia). Blood pressure was measured: before administration of the compounds—time 0 min (control pressure), and 60 min thereafter. For each compound, studies were performed in the dose of 2 mg/kg b.w. Compounds were dissolved in water and administered intravenously. Initial blood pressure before administration of the tested compounds in all groups was similar.
Statistical calculations were carried out with the GraphPadPrism 6 program (GraphPad Software). Results are given as the arithmetic means with standard deviation (SD). The statistical significance was calculated using a one-way ANOVA and posthoc Bonfferoni Test in comparison to 0.9% NaCl. Differences were considered statistically significant at: * p ≤ 0.05, ** p ≤ 0.01, *** p ≤ 0.001.

SMILES	pIC50 (α1A-ARs)	α1A Profile (α1A-ARs)	pIC50 (α1D-ARs)	pEC50 (α1D-ARs)	α1D Profile (α1D-ARs)	effect on blood pressure, in words (significance vs 0.9% NaCl) [1]	decrease of DBP ([1]; over 60 min)	pEC50 (α1A-ARs; antagonist, in abstract)	functional preference over the α1B subtype (α1A-ARs; α1B vs α1A functional potency)
O=S(=O)(NCC1CCN(CCOc2ccccc2OCC(F)(F)F)CC1)c1cc(Cl)ccc1F [Compound 10, 5-Chloro-2-fluoro-N-[(1-{2-[(2,2,2-trifluoroethoxy)phenoxy]ethyl}piperidin-4-yl)methyl]benzenesulfonamide]	8.68	ANT	8.57	8.57 to 8.96	ANT	statistically significant drop in systolic blood pressure was observed from 30 min after administration	–	–	–
CCOc1ccccc1OCCN[C@H](C)Cc1ccc(OC)c(S(N)(=O)=O)c1 [tamsulosin, reference compound]	–	ANT	11.30	–	ANT	significantly through whole period of observation	13.3–16.6 mmHg	–	–
O=S(=O)(NCC1CCN(CCOc2ccccc2OCC(F)(F)F)CC1)c1cccc(Cl)c1F [Compound 9, 3-Chloro-2-fluoro-N-[(1-{2-[(2,2,2-trifluoroethoxy)phenoxy]ethyl}piperidin-4-yl)methyl]benzenesulfonamide]	9.10	ANT	8.96	8.96	ANT	did not decrease systolic and diastolic blood pressure; also recorded: insignificantly	–	9.10	5 fold
